Results on 15 compounds are retold here after patent publication US6979690B2, “Oxo or oxy-pyridine compounds as 5-HT4 receptor modulators” (Pfizer Inc., priority 2002, dated 2005).

Usually melting point stands for the temperature of the solid-liquid transition.

In the case of `CC(C)CCN1CCC(CNC(=O)c2cc(Cl)c(N)[nH]c2=O)CC1` [Example 5, 6-Amino-5-chloro-N-{[1-(3-methylbutyl)-4-piperidinyl]methyl}-2-oxo-1,2-dihydro-3-pyridinecarboxamide], the melting point lay in the range of 131 to 135 °C.
Take `COc1nc(N)c(Cl)cc1C(=O)CCC1CCN(CC(O)C(C)(C)C)CC1` (stereo not drawn) [Example 107, 1-(6-Amino-5-chloro-2-methoxypyridin-3-yl)-3-[1-(2-hydroxy-3,3-dimethylbutyl)piperidine-4-yl]propan-1-one]: the melting point was determined as 134 °C.
As to `CCN1CCC(CNC(=O)c2cc(Cl)c(N)[nH]c2=O)CC1` [Example 1, 6-Amino-5-chloro-N-[(1-ethyl-4-piperidinyl)methyl]-2-oxo-1,2-dihydro-3-pyridinecarboxamide], the melting point is 136 to 140 °C.
In the case of `COc1nc(N)c(Cl)cc1C(=O)CCC1CCNCC1.Cl` it was 230.6 °C; in that of `CCCCN1CCC(CCC(=O)c2ccc(N)nc2OC)CC1` [Example 12, 1-(6-Amino-2-methoxy-3-pyridinyl)-3-(1-butyl-4-piperidinyl)-1-propanone], 85 to 89 °C; in that of `COc1nc(N)c(Cl)cc1C(=O)CCC1CCN(CC(C)(C)O)CC1` [Example 109, 1-(6-Amino-5-chloro-2-methoxypyridin-3-yl)-3-[1-(2-hydroxy-2-methylpropyl)piperidine-4-yl]propan-1-one], 108.1 °C.
In the case of `COc1nc(N)ccc1C(=O)CCC1CCN(CC2CCCCC2)CC1` [Example 16, 1-(6-Amino-2-methoxy-3-pyridinyl)-3-[1-(cyclohexylmethyl)-4-piperidinyl]-1-propanone] it was 73.2 °C; in that of `Nc1[nH]c(=O)c(C(=O)CCC2CCN(CC3CCCCC3)CC2)cc1Cl` [Example 106, 6-Amino-5-chloro-3-{3-[1-(cyclohexylmethyl)piperidine-4-yl]propanoyl}pyridin-2(1H)-one], 164.3 °C.
`CC(C)CN1CCC(CCC(=O)c2cc(Cl)c(N)[nH]c2=O)CC1` [Example 15, 6-Amino-5-chloro-3-[3-(1-isobutyl-4-piperidinyl)propanoyl]-2(1H)-pyridinone] came in with a melting point of 175 °C.
The result for `CC(C)(C)C(O)CN1CCC(CCC(=O)c2cc(Cl)c(N)[nH]c2=O)CC1` (stereo not drawn) [Example 108, 6-Amino-5-chloro-3-{3-[1-(2-hydroxy-3,3-dimethylbutyl)-piperidine-4-yl]propanoyl}pyridin-2(1H)-one] reads 211.3 °C; that for `CCCCN1CCC(CCC(=O)c2cc(Cl)c(N)nc2OC)CC1` [Example 10, 1-[6-Amino-5-chloro-2-(methoxy)-3-pyridinyl]-3-(1-butyl-4-piperidinyl)-1-propanone], 86 to 87 °C.
Compound `CC(C)(C)OC(=O)CN1CCC(CNC(=O)c2cc(Cl)c(N)[nH]c2=O)CC1` [Example 8, 1,1-Dimethylethyl [4-({[(6-amino-5-chloro-2-oxo-1,2-dihydro-3-pyridinyl)carbonyl]amino}methyl)-1-piperidinyl]acetate] displayed a melting point of 200 to 203 °C.
For `CCOC(=O)CN1CCC(CNC(=O)c2cc(Cl)c(N)[nH]c2=O)CC1` [Example 7, Ethyl [4-({[(6-amino-5-chloro-2-oxo-1,2-dihydro-3-pyridinyl)carbonyl]amino}methyl)-1-piperidinyl]acetate], the melting point is 162 to 164 °C.
The compound `CC(C)CN1CCC(CNC(=O)c2cc(Cl)c(N)[nH]c2=O)CC1` [Example 6, 6-Amino-5-chloro-N-{[1-(2-methylpropyl)-4-piperidinyl]methyl}-2-oxo-1,2-dihydro-3-pyridinecarboxamide] had a melting point of 128 to 133 °C.
On to `COc1nc(N)c(Cl)cc1C(=O)CCC1CCN(CC(C)C)CC1` [Example 14, 1-(6-Amino-5-chloro-2-methoxy-3-pyridinyl)-3-(1-isobutyl-4-piperidinyl)-1-propanone], for which the melting point came to 128 °C.
